# Assay results from US12649750B2, “Macrocyclic compounds, compositions, and methods of using thereof” (Sionna Therapeutics Inc., priority 2022, dated 2026).
# Molecular target: T1, NBD1 (Homo sapiens, UniProt P13569)
# T1 construct: Purified recombinant NBD1 was produced using previously described methods; made in house
# Experiment: Aggregation analysis using differential static light scattering (DSLS), thermal stability of NBD1 (ΔTagg)
# Format: binding
# Conditions: ΔTagg versus DMSO control, NBD1 0.2 mg/ml
# In short: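 Purified recombinant NBD1 at 0.2 mg/ml in 50 mM Tris-HCl, 150 mM NaCl, 5 mM MgCl2, 2 mM ATP, 2 mM DTT, pH 7.6, 1% glycerol, with compound, heated 1° C./min to 70° C. under light-scattering monitoring. Tagg taken at curve inflection; ΔTagg is compound Tagg minus mean DMSO-control Tagg, binned A (≤5° C.), B (>5-≤10° C.), C (>10-≤25° C.).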
# T1 sequence (P13569 423-646 limits assumed): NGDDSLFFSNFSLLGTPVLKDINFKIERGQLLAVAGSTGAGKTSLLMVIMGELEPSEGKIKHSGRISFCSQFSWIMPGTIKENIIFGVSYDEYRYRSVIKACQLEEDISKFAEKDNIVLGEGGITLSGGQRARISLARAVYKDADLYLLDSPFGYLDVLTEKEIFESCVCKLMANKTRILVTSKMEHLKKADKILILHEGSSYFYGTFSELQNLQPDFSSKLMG
row,SMILES,DSLS 3D (100 μM ΔT)
1,"C[C@@H](Cc1cccc([C@@]2(C)CCCC(C)(C)CS(=O)(=O)CCc3c(c(F)cc4[nH]ncc34)Oc3ccc(F)c(c3)-c3nc2nn3C)c1)C(=O)O [Compound 359, (2S)-3-[3-[(6R)-22,28-Difluoro-3,6,10,10-tetramethyl-12,12-dioxo-24-oxa-12λ6-thia-3,4,18,19,30-pentazapentacyclo[23.3.1.12,5.015,23.016,20]triaconta-1(29),2(30),4,15,17,20,22,25,27-nonaen-6-yl]phenyl]-2-methyl-propanoic Acid]",B (a value above 5 °C and less than or equal to 10 °C is marked “B”)
2,"CNC1CS(=O)(=O)CC(C)(C)CCC[C@](C)(c2cccc(C[C@@H](C)C(=O)O)c2)c2nc(n(C)n2)-c2cc(ccc2F)Oc2c(F)c(F)c3[nH]ccc3c21 (stereo partly drawn) [Compound 360D, (2R)-2-Methyl-3-[3-[(6R)-21,22,28-trifluoro-3,6,10,10-tetramethyl-14-(methylamino)-12,12-dioxo-24-oxa-12λ6-thia-3,4,19,30-tetrazapentacyclo[23.3.1.12,5.015,23.016,20]triaconta-1(29),2(30),4,15,17,20,22,25,27-nonaen-6-yl]phenyl]propanoic Acid]",A (an ΔTagg value less than or equal to 5 °C is marked “A”)
3,"Cn1nc2nc1-c1cc(ccc1F)Oc1c(F)c(F)c3[nH]cc(CC(=O)O)c3c1CCS(=O)(=O)CC(C)(C)CCC[C@]2(C)c1ccccc1 [Compound 361, 2-[(6R)-21,22,28-Trifluoro-3,6,10,10-tetramethyl-12,12-dioxo-6-phenyl-24-oxa-12λ6-thia-3,4,19,30-tetrazapentacyclo[23.3.1.12,5.015,23.016,20]triaconta-1(29),2(30),4,15,17,20,22,25,27-nonaen-17-yl]acetic Acid]",A (an ΔTagg value less than or equal to 5 °C is marked “A”)
4,"Cn1nc2nc1-c1cc(ccn1)Sc1c(F)cc3[nH]cc(CC(=O)O)c3c1CCS(=O)(=O)CC(C)(C)CCC[C@]2(C)c1ccccc1 [Compound 362, 2-[(6R)-22-Fluoro-3,6,10,10-tetramethyl-12,12-dioxo-6-phenyl-12λ6,24-dithia-3,4,19,28,30-pentazapentacyclo[23.3.1.12,5.015,23.016,20]triaconta-1(29),2(30),4,15,17,20,22,25,27-nonaen-17-yl]acetic Acid]",A (an ΔTagg value less than or equal to 5 °C is marked “A”)
5,"Cn1nc2nc1-c1cc(ccn1)Oc1c(F)c(F)c3[nH]cc(CC(=O)O)c3c1CCS(=O)(=O)CC(C)(C)CCC[C@]2(C)c1ccccc1 [Compound 363, 2-[(6R)-21,22-Difluoro-3,6,10,10-tetramethyl-12,12-dioxo-6-phenyl-24-oxa-12λ6-thia-3,4,19,28,30-pentazapentacyclo[23.3.1.12,5.015,23.016,20]triaconta-1(29),2(30),4,15,17,20,22,25,27-nonaen-17-yl]acetic acid]",A (an ΔTagg value less than or equal to 5 °C is marked “A”)
6,"Cn1nc2nc1-c1cc(ccn1)Cc1c(F)cc3[nH]cc(CC(=O)O)c3c1CCS(=O)(=O)CC(C)(C)CCC[C@]2(C)c1ccccc1 [Compound 364, 2-[(6R)-22-Fluoro-3,6,10,10-tetramethyl-12,12-dioxo-6-phenyl-12λ6-thia-3,4,19,28,30-pentazapentacyclo[23.3.1.12,5.015,23.016,20]triaconta-1(29),2(30),4,15,17,20,22,25,27-nonaen-17-yl]acetic Acid]",A (an ΔTagg value less than or equal to 5 °C is marked “A”)
7,"Cn1nc2nc1-c1cc(ccn1)S(=O)(=O)c1c(F)cc3[nH]cc(CC(=O)O)c3c1CCS(=O)(=O)CC(C)(C)CCC[C@]2(C)c1ccccc1 [Compound 366, 2-[(6R)-22-Fluoro-3,6,10,10-tetramethyl-12,12,24,24-tetraoxo-6-phenyl-12λ6,24λ6-dithia-3,4,19,28,30-pentazapentacyclo[23.3.1.12,5.015,23.016,20]triaconta-1(29),2(30),4,15,17,20,22,25,27-nonaen-17-yl]acetic acid]",A (an ΔTagg value less than or equal to 5 °C is marked “A”)
